Series [1] deals with recombinant NL4-3 virus (nef section replaced with Renilla luciferase gene) in MT-2 cells. Nature of the series: HIV cell culture assay (antiviral activity, luciferase readout). The settings on record: Renilla, NL43, MT-2 cells infected for 4-5 days with recombinant NL4-3 Renilla luciferase virus. Format: cell-based. Summed up:
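The reporter virus was produced by transfecting 293T cells with the NL4-3 nef/Renilla luciferase proviral clone. MT-2 cells were infected for 4–5 days with serial compound dilutions present. Luciferase was read with a live-cell substrate, and EC50 came from the exponential median-effect equation.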

Series [2] in a line: Compound cytotoxicity, XTT-based colorimetric assay. The settings on record: human; uninfected MT2 cells, day 4, XTT; read-out: CC50. Type of series: cell-based. Summed up:
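Cells seeded as for the antiviral assay but left uninfected (MT2). Compound exposure continued to day 4. XTT reagent added and colour read. CC50 calculated.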
A general note: Formazan colour is commonly taken as a measure of viable cells.

A word on the EC50: it is the concentration giving half of the maximal effect. A word on the CC50: it is the concentration that lowers cell viability or growth by half.

For the compound `Cc1cc(C2(F)CCC(F)(F)CC2)nc2nc([C@H](Cc3cc(F)cc(F)c3)NC(=O)Cn3nc(C(F)F)c4c3C(F)(F)[C@@H]3C[C@H]43)n(-c3ccc(Cl)c4c(NS(C)(=O)=O)nn(CCN5C[C@@H](C)O[C@@H](C)C5)c34)c(=O)c12` (atropisomer, axis not shown; (P)) [Example 502, N-[(1S)-1-[(3P)-3-(4-chloro-1-{2-[(2R,6S)-2,6-dimethylmorpholin-4-yl]ethyl}-3-methanesulfonamido-1H-indazol-7-yl)-5-methyl-4-oxo-7-(1,4,4-trifluorocyclohexyl)-3H,4H-pyrido[2,3-d]pyrimidin-2-yl]-2-(3,5-difluorophenyl)ethyl]-2-[(2S,4R)-9-(difluoromethyl)-5,5-difluoro-7,8-diazatricyclo[4.3.0.0^2,^4]nona-1(6),8-dien-7-yl]acetamide], the EC50 in series [1] was 19 pM. Further, the CC50 at 4 days in series [2] was over 20000 pM.
For `C[C@@H]1CN(Cc2cc(C3CCC(F)(F)CC3)nc3nc([C@H](Cc4cc(F)cc(F)c4)NC(=O)Cn4nc(C(F)F)c5c4C(F)(F)[C@@H]4C[C@H]54)n(-c4ccc(Cl)c5c(NS(C)(=O)=O)nn(CCN6C[C@H](F)C[C@H](F)C6)c45)c(=O)c23)C[C@H](C)O1` (atropisomer, axis not shown; (P)) [Example 526, N-[(1S)-1-[(3P)-3-(4-chloro-1-{2-[(3R,5S)-3,5-difluoropiperidin-1-yl]ethyl}-3-methanesulfonamido-1H-indazol-7-yl)-7-(4,4-difluorocyclohexyl)-5-{[(2R,6S)-2,6-dimethylmorpholin-4-yl]methyl}-4-oxo-3H,4H-pyrido[2,3-d]pyrimidin-2-yl]-2-(3,5-difluorophenyl)ethyl]-2-[(2S,4R)-9-(difluoromethyl)-5,5-difluoro-7,8-diazatricyclo[4.3.0.0^2,^4]nona-1(6),8-dien-7-yl]acetamide] the same measures were 14 pM and over 20000 pM.
As for `Cc1cc(C2CCC(F)(F)CC2)nc2nc([C@H](Cc3cc(F)cc(F)c3)NC(=O)Cn3nc(C4CC4)c4c3C[C@@H]3C[C@H]43)n(-c3ccc(Cl)c4c(NS(C)(=O)=O)nn(CCN5CCC(C)(F)C5)c34)c(=O)c12` (stereo partly drawn) [Example 280, N-[(1S)-1-[(3P)-3-{4-chloro-1-[2-(3-fluoro-3-methylpyrrolidin-1-yl)ethyl]-3-methanesulfonamido-1H-indazol-7-yl}-7-(4,4-difluorocyclohexyl)-5-methyl-4-oxo-3H,4H-pyrido[2,3-d]pyrimidin-2-yl]-2-(3,5-difluorophenyl)ethyl]-2-[(2S,4S)-9-cyclopropyl-7,8-diazatricyclo[4.3.0.0^2,^4]nona-1(6),8-dien-7-yl]acetamide], the EC50 in series [1] came out at 6 pM. In series [2], the CC50 at 4 days was over 50000 pM.
Consider `Cc1cc(C2(F)CCC(F)(F)CC2)nc2nc([C@H](Cc3cc(F)cc(F)c3)NC(=O)Cn3nc(C4CC4)c4c3C[C@@H]3C[C@H]43)n(-c3ccc(Cl)c4c(NS(C)(=O)=O)nn(C[C@@H](C)N5C[C@@H](C)O[C@@H](C)C5)c34)c(=O)c12` (relative stereo) [Example 723, N-[(1S)-1-[(3P)-3-{4-chloro-1-[(2R)-2-[(2R,6S)-2,6-dimethylmorpholin-4-yl]propyl]-3-methanesulfonamido-1H-indazol-7-yl}-5-methyl-4-oxo-7-(1,4,4-trifluorocyclohexyl)-3H,4H-pyrido[2,3-d]pyrimidin-2-yl]-2-(3,5-difluorophenyl)ethyl]-2-[(2R*,4R*)-9-cyclopropyl-7,8-diazatricyclo[4.3.0.0^2,^4]nona-1(6),8-dien-7-yl]acetamide], for which the EC50 in series [1] turned out to be 12 pM. The CC50 at 4 days in series [2] was over 20000 pM.
For `COCCNc1cc(C2CCC(F)(F)CC2)nc2nc([C@H](Cc3cc(F)cc(F)c3)NC(=O)Cn3nc(C(F)F)c4c3C(F)(F)[C@@H]3C[C@H]43)n(-c3ccc(Cl)c4c(NS(C)(=O)=O)nn(CCN5C[C@H]6CC[C@@H](C5)O6)c34)c(=O)c12` (atropisomer, axis not shown; (P)) [Example 420, N-[(1S)-1-[(3P)-3-(4-chloro-3-methanesulfonamido-1-{2-[(1R,5S)-8-oxa-3-azabicyclo[3.2.1]octan-3-yl]ethyl}-1H-indazol-7-yl)-7-(4,4-difluorocyclohexyl)-5-[(2-methoxyethyl)amino]-4-oxo-3H,4H-pyrido[2,3-d]pyrimidin-2-yl]-2-(3,5-difluorophenyl)ethyl]-2-[(2S,4R)-9-(difluoromethyl)-5,5-difluoro-7,8-diazatricyclo[4.3.0.0^2,^4]nona-1(6),8-dien-7-yl]acetamide] the same measures were 11 pM and over 20000 pM.
The corresponding values for `Cc1cc(C2CCC(F)(F)CC2)nc2nc([C@H](Cc3cc(F)cc(F)c3)NC(=O)Cn3nc(C(F)(F)F)c4c3C[C@@H]3C[C@H]43)n(-c3ccc(Cl)c4c(NS(C)(=O)=O)nn(CCN5CCOCC5)c34)c(=O)c12` (atropisomer, axis not shown; (P)) [Example 115, N-[(1S)-1-[(3P)-3-{4-chloro-3-methanesulfonamido-1-[2-(morpholin-4-yl)ethyl]-1H-indazol-7-yl}-7-(4,4-difluorocyclohexyl)-5-methyl-4-oxo-3H,4H-pyrido[2,3-d]pyrimidin-2-yl]-2-(3,5-difluorophenyl)ethyl]-2-[(2S,4S)-9-(trifluoromethyl)-7,8-diazatricyclo[4.3.0.0^2,^4]nona-1(6),8-dien-7-yl]acetamide] are 16 pM and over 50000 pM.
The corresponding values for `Cc1cc(C2CCC(F)(F)CC2)nc2nc([C@H](Cc3cc(F)cc(F)c3)NC(=O)Cn3nc(C(F)F)c4c3C(F)(F)[C@@H]3C[C@H]43)n(-c3ccc(Cl)c4c(NS(C)(=O)=O)nn(CCN5CC6C(C5)C6(F)F)c34)c(=O)c12` (stereo partly drawn) [Example 312, N-[(1S)-1-[(3P)-3-[4-chloro-1-(2-{6,6-difluoro-3-azabicyclo[3.1.0]hexan-3-yl}ethyl)-3-methanesulfonamido-1H-indazol-7-yl]-7-(4,4-difluorocyclohexyl)-5-methyl-4-oxo-3H,4H-pyrido[2,3-d]pyrimidin-2-yl]-2-(3,5-difluorophenyl)ethyl]-2-[(2S,4R)-9-(difluoromethyl)-5,5-difluoro-7,8-diazatricyclo[4.3.0.0^2,^4]nona-1(6),8-dien-7-yl]acetamide] are 21 pM and over 50000 pM.
Consider `Cc1cc(C2(F)CCC(F)(F)CC2)nc2nc([C@H](Cc3cc(F)cc(F)c3)NC(=O)Cn3nc(C4CC4)c4c3C[C@@H]3C[C@H]43)n(-c3ccc(Cl)c4c(NS(C)(=O)=O)nn(CCN5C[C@@H](C)OC(C)(C)C5)c34)c(=O)c12` (atropisomer, axis not shown; (P)) [Example 584, N-[(1S)-1-[(3P)-3-(4-chloro-3-methanesulfonamido-1-{2-[(6R)-2,2,6-trimethylmorpholin-4-yl]ethyl}-1H-indazol-7-yl)-5-methyl-4-oxo-7-(1,4,4-trifluorocyclohexyl)-3H,4H-pyrido[2,3-d]pyrimidin-2-yl]-2-(3,5-difluorophenyl)ethyl]-2-[(2S,4S)-9-cyclopropyl-7,8-diazatricyclo[4.3.0.0^2,^4]nona-1(6),8-dien-7-yl]acetamide], for which the EC50 in series [1] turned out to be 15 pM. Besides, the CC50 at 4 days in series [2] was over 20000 pM.
As to `Cc1cc(C2(F)CCC(F)(F)CC2)nc2nc([C@H](Cc3cc(F)cc(F)c3)NC(=O)Cn3nc(C(F)F)c4c3C(F)(F)[C@@H]3C[C@H]43)n(-c3ccc(Cl)c4c(NS(C)(=O)=O)nn([C@H](C)C(=O)N5CC(C)(C)OC(C)(C)C5)c34)c(=O)c12` (atropisomer, axis not shown; (P)) [Example 749, N-[(1S)-1-[(3P)-3-{4-chloro-3-methanesulfonamido-1-[(2R)-1-oxo-1-(2,2,6,6-tetramethylmorpholin-4-yl)propan-2-yl]-1H-indazol-7-yl}-5-methyl-4-oxo-7-(1,4,4-trifluorocyclohexyl)-3H,4H-pyrido[2,3-d]pyrimidin-2-yl]-2-(3,5-difluorophenyl)ethyl]-2-[(2S,4R)-9-(difluoromethyl)-5,5-difluoro-7,8-diazatricyclo[4.3.0.0^2,^4]nona-1(6),8-dien-7-yl]acetamide], the EC50 in series [1] amounted to 18 pM. Also, the CC50 at 4 days in series [2] was over 20000 pM.
`Cc1cc(C2CCC(F)(F)CC2)nc2nc([C@H](Cc3cc(F)cc(F)c3)NC(=O)Cn3nc(C4CC4)c4c3C[C@@H]3C[C@H]43)n(-c3ccc(Cl)c4c(NS(C)(=O)=O)nn(CCN5C[C@@H](C)OC(C)(C)C5)c34)c(=O)c12` (atropisomer, axis not shown; (P)) [Example 459, N-[(1S)-1-[(3P)-3-(4-chloro-3-methanesulfonamido-1-{2-[(6R)-2,2,6-trimethylmorpholin-4-yl]ethyl}-1H-indazol-7-yl)-7-(4,4-difluorocyclohexyl)-5-methyl-4-oxo-3H,4H-pyrido[2,3-d]pyrimidin-2-yl]-2-(3,5-difluorophenyl)ethyl]-2-[(2S,4S)-9-cyclopropyl-7,8-diazatricyclo[4.3.0.0^2,^4]nona-1(6),8-dien-7-yl]acetamide]: the EC50 in series [1] was determined as 5 pM. The CC50 at 4 days in series [2] was over 20000 pM.
With `Cc1cc(C2(C)CCC(F)(F)CC2)nc2nc([C@H](Cc3cc(F)cc(F)c3)NC(=O)Cn3nc(C4CC4)c4c3C[C@@H]3C[C@H]43)n(-c3ccc(Cl)c4c(NS(C)(=O)=O)nn(CCN5CC(C)(C)OC(C)(C)C5)c34)c(=O)c12` (atropisomer, axis not shown; (P)) [Example 506, N-[(1S)-1-[(3P)-3-{4-chloro-3-methanesulfonamido-1-[2-(2,2,6,6-tetramethylmorpholin-4-yl)ethyl]-1H-indazol-7-yl}-7-(4,4-difluoro-1-methylcyclohexyl)-5-methyl-4-oxo-3H,4H-pyrido[2,3-d]pyrimidin-2-yl]-2-(3,5-difluorophenyl)ethyl]-2-[(2S,4S)-9-cyclopropyl-7,8-diazatricyclo[4.3.0.0^2,^4]nona-1(6),8-dien-7-yl]acetamide], the EC50 in series [1] came out at 27 pM. Also, the CC50 at 4 days in series [2] was over 20000 pM.

The record behind these values is patent publication US12594276B2, “Inhibitors of human immunodeficiency virus replication” (ViiV Healthcare UK (No.5) Limited, priority 2024, dated 2026).
